Counter-ions that a name gives are not always drawn.
Columns and labels:
TF1-BCRABL1 cells = TF1-BCRABL1 cells (Homo sapiens, UniProt P00519); experiment: ABL1 cell based assay: viability of ABL1-dependent cell line (CellTiter-Glo); settings: 72 hours, cell viability; read-out: EXAMPLE F JAK2-TF1-BCRABL1 IC50
Procedure: One or more compounds herein were tested for inhibitory activity of ABL1 targets according to at least one of the following cellular assays.
Cancer cell lines dependent on ABL1 kinase activity for proliferation and/or survival were plated at 3000 cells per well (96 well plate format) in RPMI 1640, and 10% FBS. Compounds were added to the cells in DMSO/media (final concentration 0.2% DMSO) and incubated for 72 hours at 37° C., 5% CO2. The effect of compound on cell viability was assessed using the CellTiter-Glo Luminescent Cell Viability Assay (Promega) followed by TopCount (Perkin Elmer, Boston, Mass.) quantitation. ABL1-dependent cell lines can include those naturally dependent on ABL1 activity or those engineered to be dependent on ABL1 activity (e.g. BaF/3 cells). The latter can be generated using wild-type ABL1 or mutant ABL1 (such as T315I ABL1) so that the activity of compounds can be assessed against different variants of the ABL1 kinase. Potential off-target effects of compounds were measured in parallel using a non-ABL1 driven cell line with the same assay readout. […] All experiments were performed in duplicate or greater.

[1] = target: T1, human JAK3 (a.a. 781-1124) (Homo sapiens, UniProt P52333); experiment: In vitro JAK kinase assay (HTRF), JAK3; format: biochemical; settings: JAK3, 3 μM ATP; read-out: EXAMPLE A JAK2-JAK3 HTRF-2 IC50
T1 construct: JAK3 (a.a. 781-1124); His tag (N); made in house; host or cells: insect cells (baculovirus)
T1 sequence (P52333 781-1124): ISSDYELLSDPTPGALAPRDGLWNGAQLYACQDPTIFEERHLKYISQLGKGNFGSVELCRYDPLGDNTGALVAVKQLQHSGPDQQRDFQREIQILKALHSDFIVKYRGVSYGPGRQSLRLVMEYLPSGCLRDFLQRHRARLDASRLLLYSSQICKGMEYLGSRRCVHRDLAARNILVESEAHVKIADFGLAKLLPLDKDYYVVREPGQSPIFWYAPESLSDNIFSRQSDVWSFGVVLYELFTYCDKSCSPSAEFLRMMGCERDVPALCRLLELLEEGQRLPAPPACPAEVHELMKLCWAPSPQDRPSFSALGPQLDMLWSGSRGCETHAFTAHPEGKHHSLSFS
Procedure: (§1) Compounds herein were tested for inhibitory activity of JAK targets according to the following in vitro assay described in Park et al., Analytical Biochemistry 1999, 269, 94-104. The catalytic domains of human JAK1 (a.a. 837-1142), JAK2 (a.a. 828-1132) and JAK3 (a.a. 781-1124) with an N-terminal His tag were expressed using baculovirus in insect cells and purified. The catalytic activity of JAK1, JAK2 or JAK3 was assayed by measuring the phosphorylation of a biotinylated peptide. The phosphorylated peptide was detected by homogenous time resolved fluorescence (HTRF). IC50s of compounds were measured for each kinase in the reactions that contain the enzyme, ATP and 500 nM peptide in 50 mM Tris (pH 7.8) buffer with 100 mM NaCl, 5 mM DTT, and 0.1 mg/mL (0.01%) BSA. The ATP concentration in the reactions was 90 μM for JAK1, 30 μM for JAK2 and 3 μM for JAK3. Reactions were carried out at room temperature for 1 hr and then stopped with 20 μL 45 mM EDTA, 300 nM SA-APC, 6 nM Eu—Py20 in assay buffer (Perkin Elmer, Boston, Mass.). Binding to the Europium labeled antibody took place for 40 minutes and HTRF signal was measured on a Fusion plate reader (Perkin Elmer, Boston, Mass.).

[2] = target: T2, human JAK2 (a.a. 828-1132) (Homo sapiens, UniProt O60674); experiment: In vitro JAK kinase assay (HTRF), JAK2; format: biochemical; settings: JAK2, 30 μM ATP; read-out: EXAMPLE A HTS-JAK2 HTRF-2 IC50
T2 construct: JAK2 (a.a. 828-1132); His tag (N); made in house; host or cells: insect cells (baculovirus)
T2 sequence (O60674 828-1132): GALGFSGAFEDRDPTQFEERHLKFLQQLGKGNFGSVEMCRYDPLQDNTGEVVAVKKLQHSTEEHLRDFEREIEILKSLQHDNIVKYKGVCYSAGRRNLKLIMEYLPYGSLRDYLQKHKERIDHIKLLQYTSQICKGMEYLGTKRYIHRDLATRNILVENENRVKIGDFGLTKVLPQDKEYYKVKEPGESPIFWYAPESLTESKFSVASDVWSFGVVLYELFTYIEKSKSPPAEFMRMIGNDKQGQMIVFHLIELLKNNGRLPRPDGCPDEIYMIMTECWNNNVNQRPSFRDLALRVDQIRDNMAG
Procedure: as §1

[3] = target: T3, human JAK1 (a.a. 837-1142) (Homo sapiens, UniProt P23458); experiment: In vitro JAK kinase assay (HTRF), JAK1; format: biochemical; settings: JAK1, 90 μM ATP; read-out: EXAMPLE A JAK2-JAK1 HTRF-2 IC50
T3 construct: human JAK1 (a.a. 837-1142); His tag (N); made in house; host or cells: insect cells (baculovirus)
T3 sequence (P23458 849-1154): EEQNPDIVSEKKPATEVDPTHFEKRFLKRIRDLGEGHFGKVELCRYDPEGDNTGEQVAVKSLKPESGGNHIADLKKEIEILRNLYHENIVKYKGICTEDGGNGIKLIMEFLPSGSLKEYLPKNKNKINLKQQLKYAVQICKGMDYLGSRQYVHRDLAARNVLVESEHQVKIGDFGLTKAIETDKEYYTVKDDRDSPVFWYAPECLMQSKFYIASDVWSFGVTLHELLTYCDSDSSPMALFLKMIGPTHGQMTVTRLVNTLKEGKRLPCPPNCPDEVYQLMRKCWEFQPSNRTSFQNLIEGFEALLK
Procedure: as §1

TF1-BCRABL1 cells, sequence (P00519 whole entry, change not shown): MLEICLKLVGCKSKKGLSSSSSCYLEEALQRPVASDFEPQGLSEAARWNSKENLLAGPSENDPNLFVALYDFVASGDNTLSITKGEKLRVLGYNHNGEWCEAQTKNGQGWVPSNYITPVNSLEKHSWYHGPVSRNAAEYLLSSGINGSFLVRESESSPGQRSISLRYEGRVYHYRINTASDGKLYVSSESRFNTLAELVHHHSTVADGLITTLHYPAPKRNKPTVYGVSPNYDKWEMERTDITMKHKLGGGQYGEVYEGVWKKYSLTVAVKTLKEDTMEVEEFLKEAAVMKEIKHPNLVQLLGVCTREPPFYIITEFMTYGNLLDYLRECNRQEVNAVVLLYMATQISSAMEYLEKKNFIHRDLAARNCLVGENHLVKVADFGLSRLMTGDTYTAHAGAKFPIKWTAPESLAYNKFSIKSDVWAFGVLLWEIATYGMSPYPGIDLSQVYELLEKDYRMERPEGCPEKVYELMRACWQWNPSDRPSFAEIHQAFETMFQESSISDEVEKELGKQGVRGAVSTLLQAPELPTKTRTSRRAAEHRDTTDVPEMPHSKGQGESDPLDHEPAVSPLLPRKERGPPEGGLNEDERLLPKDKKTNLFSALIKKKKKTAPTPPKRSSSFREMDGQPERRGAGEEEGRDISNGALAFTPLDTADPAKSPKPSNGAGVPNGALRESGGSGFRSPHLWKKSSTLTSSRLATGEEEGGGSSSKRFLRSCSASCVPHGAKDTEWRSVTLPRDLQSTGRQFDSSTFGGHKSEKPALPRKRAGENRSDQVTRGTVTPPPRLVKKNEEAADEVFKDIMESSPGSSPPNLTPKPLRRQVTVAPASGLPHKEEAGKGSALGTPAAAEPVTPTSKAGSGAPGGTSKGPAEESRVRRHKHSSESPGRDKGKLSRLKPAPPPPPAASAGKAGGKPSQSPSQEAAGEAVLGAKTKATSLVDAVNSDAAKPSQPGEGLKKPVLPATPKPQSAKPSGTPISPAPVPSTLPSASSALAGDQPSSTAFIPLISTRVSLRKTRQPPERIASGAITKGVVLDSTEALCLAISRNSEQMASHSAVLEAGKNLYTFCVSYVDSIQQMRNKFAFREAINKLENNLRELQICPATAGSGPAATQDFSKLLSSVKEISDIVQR

Cc1ccc(NC(=O)c2ccc(F)c(C(F)(F)F)c2)cc1-c1ccc2c(c1)[nH]c1ncncc12 [Example 4, 4-fluoro-N-[4-methyl-3-(9H-pyrimido[4,5-b]indol-7-yl)-phenyl]-3-(trifluoromethyl)benzamide]
≤ 500 nM: GI50 (TF1-BCRABL1 cells) | IC50 [1] | IC50 [2] | IC50 [3]

Cc1ccc(NC(=O)c2cc(C(F)(F)F)ccc2F)cc1-c1ccc2c(c1)[nH]c1ncncc12 [Example 5, 2-fluoro-N-[4-methyl-3-(9H-pyrimido[4,5-b]indol-7-yl)-phenyl]-5-(trifluoromethyl)-benzamide]
≤ 500 nM: GI50 (TF1-BCRABL1 cells) | IC50 [1] | IC50 [2] | IC50 [3]

Cc1ccc(NC(=O)c2cc(C(F)(F)F)cc(Cl)c2F)cc1-c1ccc2c(c1)[nH]c1ncncc12 [Example 8, 3-chloro-2-fluoro-N-[4-methyl-3-(9H-pyrimido[4,5-b]-indol-7-yl)phenyl]-5-(trifluoro-methyl)benzamide]
≤ 500 nM: GI50 (TF1-BCRABL1 cells) | IC50 [1] | IC50 [2] | IC50 [3]

Cc1ccc(NC(=O)c2cc(C(F)(F)F)cc(C(F)(F)F)c2)cc1-c1ccc2c(c1)[nH]c1ncncc12 [Example 9, N-[4-methyl-3-(9H-pyrimido-[4,5-b]indol-7-yl)phenyl]-3,5-bis(trifluoromethyl)benzamide]
≤ 500 nM: GI50 (TF1-BCRABL1 cells) | IC50 [1] | IC50 [2] | IC50 [3]

COc1ccc(C(=O)Nc2ccc(C)c(-c3ccc4c(c3)[nH]c3ncncc34)c2)cc1C(F)(F)F [Example 10, 4-methoxy-N-[4-methyl-3-(9H-pyrimido[4,5-b]indol-7-yl)-phenyl]-3-(trifluoromethyl)-benzamide]
≤ 500 nM: GI50 (TF1-BCRABL1 cells) | IC50 [1] | IC50 [2] | IC50 [3]

O=C(Nc1ccc(Cl)c(-c2ccc3c(c2)[nH]c2ncncc23)c1)c1cccc(C(F)(F)F)c1 [Example 17, N-[4-chloro-3-(9H-pyrimido-[4,5-b]indol-7-yl)phenyl]-3-(trifluoromethyl)benzamide]
≤ 500 nM: GI50 (TF1-BCRABL1 cells) | IC50 [1] | IC50 [2] | IC50 [3]

Cc1ccc(NC(=O)c2cc(C(F)(F)F)ccn2)cc1-c1ccc2c(c1)[nH]c1ncncc12 [Example 18, N-[4-methyl-3-(9H-pyrimido[4,5-b]indol-7-yl)-phenyl]-4-(trifluoromethyl) pyridine-2-carboxamide]
≤ 500 nM: GI50 (TF1-BCRABL1 cells) | IC50 [1] | IC50 [2] | IC50 [3]

Cc1ccc(NC(=O)c2cc(-n3cnc(C=O)c3)cc(C(F)(F)F)c2)cc1-c1ccc2c(c1)[nH]c1ncncc12 [Example 20, 3-(4-Formyl-1H-imidazol-1-yl)-N-[4-methyl-3-(9H-pyrimido[4,5-b]indol-7-yl)phenyl]-5-(trifluoromethyl)benzamide trifluoroacetate]
≤ 500 nM: GI50 (TF1-BCRABL1 cells) | IC50 [1] | IC50 [2] | IC50 [3]

Cc1ccc(NC(=O)c2cc(-n3cnc(CO)c3)cc(C(F)(F)F)c2)cc1-c1ccc2c(c1)[nH]c1ncncc12 [Example 21, 3-[4-(Hydroxymethyl)-1H-imidazol-1-yl]-N-[4-methyl-3-(9H-pyrimido[4,5-b]indol-7-yl)phenyl]-5-(trifluoromethyl)benzamide bis(trifluoroacetate) (salt)]
≤ 500 nM: GI50 (TF1-BCRABL1 cells) | IC50 [1] | IC50 [2] | IC50 [3]

CNCc1cn(-c2cc(C(=O)Nc3ccc(C)c(-c4ccc5c(c4)[nH]c4ncncc45)c3)cc(C(F)(F)F)c2)cn1 [Example 22, 3-4-[(Methylamino)methyl]-1H-imidazol-1-yl-N-[4-methyl-3-(9H-pyrimido[4,5-b]-indol-7-yl)phenyl]-5-(trifluoromethyl)benzamide tris(trifluoroacetate)]
≤ 500 nM: GI50 (TF1-BCRABL1 cells) | IC50 [1] | IC50 [2] | IC50 [3]

Reference: US8513270B2, “Substituted heterocycles as Janus kinase inhibitors” (Incyte Corporation, priority 2006, dated 2013)
